Assay results taken from US20250276107A1, “HYDROGEL SYSTEMS AND METHODS FOR TREATING FISTULA AND OTHER INDICATIONS” (Terasaki Institute for Biomedical Innovation, priority 2024, published 2025).

Test system: red blood cells (RBCs)
Assay: Hemolysis test with diluted whole human blood
Assay type: cell-based
Conditions: 2 h, physiological temperature
Description: In the development of bioadhesives, it is important to assess hemocompatibility to evaluate whether the materials damage the blood cells. For this purpose, a standard hemolysis test was performed by exposing crosslinked hydrogels to diluted sodium citrate-treated whole human blood for 2 h at physiological temperature. The presence of a toxic effect was assessed visually by observing the appearance of a red-colored supernatant after centrifugation, indicating the release of hemoglobin from ruptured red blood cells (RBCs). […] After incubation with hydrogels, intact RBCs were efficiently sedimented through centrifugation, similar to the saline negative control. […] The disruption of RBCs was further assessed through colorimetric analysis, with the calculated percent hemolysis induced by the hydrogels presented in FIG. 6A(II). The hemolysis level of the hydrogels at all tested PDA concentrations remained below the acceptable limit (≤5%).

## Triton X-100
  supernatant colour after centrifugation (visual hemolysis): reddish supernatant
